The text below walks through data of US9334263B2, “Compositions useful for treating disorders related to kit” (BLUEPRINT MEDICINES CORPORATION, priority 2013, dated 2016).

The target of experiment [1] is T1, Kit D816V (HMC1.2 cells, Kit V560G and D816V) (Homo sapiens, UniProt P10721, D816V/V560G).
T1 construct: endogenous in cells; host or cells: HMC1.2 cells
Put plainly: HMC1.2 autophosphorylation assay (AlphaLISA, phospho-Y719 c-Kit). The class given is cell-based. Particulars: Kit autophosphorylation at tyrosine 719, 90 minutes, read-out: Cellular Activity. The gist of the method: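 Serum-starved (overnight, serum-free IMDM) HMC1.2 cells were treated for 90 min with a 10-point compound series (25 uM–95.4 pM, 0.25% DMSO final). Lysates were probed with phospho-Y719 and total c-Kit antibodies (15 nM final) plus AlphaLISA acceptor and streptavidin donor beads (2 h each, RT), with AlphaScreen read-out.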
(In general: Alpha assays give light when donor and acceptor beads are brought close together.)

Experiment [2] deals with T2, D816V Kit (Homo sapiens, UniProt P10721, D816V).
T2 construct: purchased Carna Bioscience 08-156
Put plainly: Kit D816V assay at Km (Caliper electrophoretic mobility shift). The class given is biochemical. Particulars: 15 uM ATP, 25 C, 90 minutes. The gist of the method: (§1)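 Read-out is the ratio of phosphorylated to unphosphorylated fluorescent peptide, resolved by mobility shift on a Caliper EZ Reader 2.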

Experiment [3] addresses T3, wild type Kit (Homo sapiens, UniProt P10721).
T3 construct: purchased Carna Bioscience 08-156
Put plainly: Kit wild type assay at Km (Caliper electrophoretic mobility shift). The class given is biochemical. The conditions noted are these: 400 uM ATP, 25 C, 90 minutes; read-out: WT KIT. The method, boiled down:
as §1

Experiment [4] concerns the target T4, PDGFRA D842V (Homo sapiens, UniProt P16234, D842V).
T4 construct: purchased ProQinase 0761-0000-1
Put plainly: PDGFRA D842V assay at Km (Caliper electrophoretic mobility shift). The conditions noted are these: 15 uM ATP, 25 C, 90 minutes; read-out: PDFGRA D842V. The class given is biochemical. Here is the method: In order to assess the activity of chemical compounds against the relevant kinase of interest, the Caliper LifeSciences electrophoretic mobility shift technology platform is used. Fluorescently labeled substrate peptide is incubated in the presence of kinase and ATP so that a […] proportion of the peptide is phosphorylated. At the end of the reaction, the mix of phosphorylated (product) and non-phosphorylated (substrate) peptides are passed through the microfluidic system of the Caliper EZ Reader 2, under an applied potential difference. The presence of the phosphate group on the product peptide provides a difference in mass and charge between those of the substrate peptide, resulting in a separation of the substrate and product pools in the sample. As the pools pass a LEDS within the instrument, these pools are detected and resolved as separate peaks. The ratio between these peaks therefore reflects the activity of the chemical matter at that concentration in that well, under those conditions.
The reaction was stopped by the addition of 70 ul of Stop buffer (100 mM HEPES pH 7.5, 0.015% Brij 35, 35 mM EDTA and 0.2% of Coating Reagent 3 (Caliper Lifesciences)). The plate was then read on a Caliper EZReader 2 (protocol settings: −1.9 psi, upstream voltage −500, downstream voltage −3000, post sample sip 38 s).

Some results are limits rather than exact numbers.

T4 sequence (P16234 24-1089 D842V): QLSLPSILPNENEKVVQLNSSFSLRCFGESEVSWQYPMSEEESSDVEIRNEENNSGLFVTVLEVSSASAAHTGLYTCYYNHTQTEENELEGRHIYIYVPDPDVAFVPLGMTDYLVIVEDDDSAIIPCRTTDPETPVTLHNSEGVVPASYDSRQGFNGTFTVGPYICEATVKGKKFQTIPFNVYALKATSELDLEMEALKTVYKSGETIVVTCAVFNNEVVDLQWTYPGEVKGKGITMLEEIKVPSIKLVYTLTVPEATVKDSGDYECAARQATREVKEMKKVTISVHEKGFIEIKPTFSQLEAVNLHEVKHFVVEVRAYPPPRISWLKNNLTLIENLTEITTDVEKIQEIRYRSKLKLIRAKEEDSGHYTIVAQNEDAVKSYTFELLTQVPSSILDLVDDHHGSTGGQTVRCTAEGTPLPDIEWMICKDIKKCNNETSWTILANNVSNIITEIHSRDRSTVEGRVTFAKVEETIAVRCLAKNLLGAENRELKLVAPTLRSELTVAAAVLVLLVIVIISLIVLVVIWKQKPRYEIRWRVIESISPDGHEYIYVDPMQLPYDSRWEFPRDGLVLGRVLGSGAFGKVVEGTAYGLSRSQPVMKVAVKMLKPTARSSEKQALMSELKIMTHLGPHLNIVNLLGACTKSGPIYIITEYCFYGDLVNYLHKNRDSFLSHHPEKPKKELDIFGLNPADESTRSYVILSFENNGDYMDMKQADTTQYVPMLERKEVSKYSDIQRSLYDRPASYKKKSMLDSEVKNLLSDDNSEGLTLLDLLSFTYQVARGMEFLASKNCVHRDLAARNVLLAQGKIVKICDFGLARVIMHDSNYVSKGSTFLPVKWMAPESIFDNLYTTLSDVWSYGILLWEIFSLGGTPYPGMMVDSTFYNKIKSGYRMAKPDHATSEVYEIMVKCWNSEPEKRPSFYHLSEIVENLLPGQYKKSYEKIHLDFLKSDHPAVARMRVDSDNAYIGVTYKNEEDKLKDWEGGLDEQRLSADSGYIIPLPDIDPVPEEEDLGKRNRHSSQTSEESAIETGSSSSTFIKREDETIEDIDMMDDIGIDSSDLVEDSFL
T1 sequence (P10721 26-976 V560G/D816V): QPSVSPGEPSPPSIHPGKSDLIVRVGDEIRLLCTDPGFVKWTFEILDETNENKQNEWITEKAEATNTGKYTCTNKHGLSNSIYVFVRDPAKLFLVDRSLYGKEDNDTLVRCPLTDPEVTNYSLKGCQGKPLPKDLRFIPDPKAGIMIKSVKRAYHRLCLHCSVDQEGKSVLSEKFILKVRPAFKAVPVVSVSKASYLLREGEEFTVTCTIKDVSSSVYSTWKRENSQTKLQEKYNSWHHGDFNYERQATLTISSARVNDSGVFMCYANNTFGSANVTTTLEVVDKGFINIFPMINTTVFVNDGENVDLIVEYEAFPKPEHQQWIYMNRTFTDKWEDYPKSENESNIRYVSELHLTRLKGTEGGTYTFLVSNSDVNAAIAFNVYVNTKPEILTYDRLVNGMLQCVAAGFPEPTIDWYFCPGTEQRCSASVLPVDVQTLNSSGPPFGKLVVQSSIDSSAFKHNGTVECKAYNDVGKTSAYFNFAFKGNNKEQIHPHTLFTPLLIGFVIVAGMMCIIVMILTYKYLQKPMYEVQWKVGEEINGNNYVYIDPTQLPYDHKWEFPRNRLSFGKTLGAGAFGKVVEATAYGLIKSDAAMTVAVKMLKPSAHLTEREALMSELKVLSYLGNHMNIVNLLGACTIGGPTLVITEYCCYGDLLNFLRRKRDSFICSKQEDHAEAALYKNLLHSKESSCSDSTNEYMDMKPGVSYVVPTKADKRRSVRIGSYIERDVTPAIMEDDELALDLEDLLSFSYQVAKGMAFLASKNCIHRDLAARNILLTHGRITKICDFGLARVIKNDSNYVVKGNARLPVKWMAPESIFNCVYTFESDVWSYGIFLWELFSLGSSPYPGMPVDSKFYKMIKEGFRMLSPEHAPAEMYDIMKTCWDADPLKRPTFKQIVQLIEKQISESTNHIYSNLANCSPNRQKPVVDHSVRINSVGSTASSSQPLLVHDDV
T2 sequence (P10721 26-976 D816V): as the sequence (P10721 26-976 V560G/D816V) above, with G535V counted along it
T3 sequence (P10721 26-976): as the sequence (P10721 26-976 V560G/D816V) above, with G535V, V791D counted along it

As for `c1ccc(Cc2cnc(N3CCN(c4ncnc(Nc5ccc6c(c5)CNCC6)n4)CC3)nc2)nc1` [Compound 44], the IC50 lay within 0.01 to 0.1 µM in experiment [1], 0.00101 to 0.01 µM in experiment [2], 0.011 to 0.1 µM in experiment [3] and 0.00101 to 0.01 µM in experiment [4].

Consider `c1ccc(Oc2cnc(N3CCN(c4ncnc(Nc5ccc6c(c5)CNCC6)n4)CC3)nc2)cc1` [Compound 46], for which the IC50 in experiment [1] was 0.01 to 0.1 µM; in experiment [2], under 0.001 µM; in experiment [3], under 0.01 µM; in experiment [4] it was 0.00101 to 0.01 µM.

`CC(=O)Nc1cccc(Nc2ncnc(N3CCN(c4ncc(Cc5ccccc5)cn4)CC3)n2)c1` [Compound 47]: the IC50 is 0.01 to 0.1 µM in experiment [1], under 0.001 µM in experiment [2], 0.011 to 0.1 µM in experiment [3] and under 0.001 µM in experiment [4].

Regarding `CNC(C)c1cccc(Nc2ncnc(N3CCN(c4ncc(Cc5ccccc5)cn4)CC3)n2)c1` (stereo not drawn) [Compound 48], the IC50 in experiment [1] was 0.01 to 0.1 µM; in experiment [2] it was under 0.001 µM; in experiment [3], under 0.01 µM; in experiment [4], under 0.001 µM.

Regarding `c1ccc(Cc2cnc(N3CCN(c4ncnc(Nc5cnn([C@H]6CCNC6)c5)n4)CC3)nc2)cc1` [Compound 52], the IC50 is 0.01 to 0.1 µM in experiment [1], under 0.001 µM in experiment [2], under 0.01 µM in experiment [3] and under 0.001 µM in experiment [4].

Consider `CNCCCn1cc(Nc2ncnc(N3CCN(c4ncc(Cc5ccccc5)cn4)CC3)n2)cn1` [Compound 61], for which the IC50 is 0.01 to 0.1 µM in experiment [1], under 0.001 µM in experiment [2], under 0.01 µM in experiment [3] and under 0.001 µM in experiment [4].

For the molecule `O=C1CCc2ccc(Nc3ncnc(N4CCN(c5ncc(Cc6ccccc6)cn5)CC4)n3)cc2N1` [Compound 68], the IC50 in experiment [1] is 0.01 to 0.1 µM; in experiment [2], 0.00101 to 0.01 µM; in experiment [3] it was 0.011 to 0.1 µM; in experiment [4] it was under 0.001 µM.

`CN1CCc2ccc(Nc3ncnc(N4CCN(c5ncc(Cc6ccccc6)cn5)CC4)n3)cc2C1` [Compound 69]: the IC50 in experiment [1] is under 0.01 µM; in experiment [2], under 0.001 µM; in experiment [3], under 0.01 µM; in experiment [4], under 0.001 µM.

`Nc1nc(N2CCN(c3ncnc(Nc4ccc5c(c4)CNCC5)n3)CC2)ncc1Cc1ccccc1` [Compound 73]: the IC50 in experiment [1] was under 0.01 µM; in experiment [2], under 0.001 µM; in experiment [3], under 0.01 µM; in experiment [4], under 0.001 µM.

For the molecule `Oc1nc(N2CCN(c3ncnc(Nc4ccc5c(c4)CNCC5)n3)CC2)ncc1Cc1ccccc1` [Compound 75], the IC50 in experiment [1] is 0.01 to 0.1 µM; in experiment [2], under 0.001 µM; in experiment [3] it was under 0.01 µM; in experiment [4] it was under 0.001 µM.

Turning to `c1ccc(Cc2cnc(N3CCN(c4ncnc(Nc5cnn(CC6CCNC6)c5)n4)CC3)nc2)cc1` (stereo not drawn) [Compound 83], the IC50 is 0.01 to 0.1 µM in experiment [1], under 0.001 µM in experiment [2], under 0.01 µM in experiment [3] and under 0.001 µM in experiment [4].

As for `CN(C)CCCn1cc(Nc2ncnc(N3CCN(c4ncc(Cc5ccccc5)cn4)CC3)n2)cn1` [Compound 88], the IC50 in experiment [1] is 0.01 to 0.1 µM; in experiment [2] it was under 0.001 µM; in experiment [3] it was 0.011 to 0.1 µM; in experiment [4] it was under 0.001 µM.

As to `c1ccc(Cc2cnc(N3CCN(c4ncnc(Nc5cccc(C6CCCNC6)c5)n4)CC3)nc2)cc1` (stereo not drawn) [Compound 98], the IC50 in experiment [1] is 0.01 to 0.1 µM; in experiment [2], under 0.001 µM; in experiment [3], under 0.01 µM; in experiment [4], under 0.001 µM.

As to `c1ccc(Cc2cnc(N3CCN(c4ncnc(Nc5ccc(N6CCNCC6)cc5)n4)CC3)nc2)cc1` [Compound 102], the IC50 in experiment [1] is 0.01 to 0.1 µM; in experiment [2], under 0.001 µM; in experiment [3] it was under 0.01 µM; in experiment [4] it was under 0.001 µM.

Consider `c1ccc(Cc2cnc(N3CCN(c4ncnc(Nc5cnn(CC6CCNCC6)c5)n4)CC3)nc2)cc1` [Compound 116], for which the IC50 in experiment [1] was 0.01 to 0.1 µM; in experiment [2] it was under 0.001 µM; in experiment [3], under 0.01 µM; in experiment [4], under 0.001 µM.

Regarding `c1ccc(Cc2cnc(N3CCN(c4ncnc(Nc5cnn(CC6CCCNC6)c5)n4)CC3)nc2)cc1` (stereo not drawn) [Compound 117], the IC50 in experiment [1] is 0.01 to 0.1 µM; in experiment [2] it was under 0.001 µM; in experiment [3] it was under 0.01 µM; in experiment [4] it was under 0.001 µM.

For `c1ccc(Cc2cnc(N3CCN(c4ncnc(Nc5cnn(C[C@H]6CNCCO6)c5)n4)CC3)nc2)cc1` [Compound 123], the IC50 in experiment [1] is under 0.01 µM; in experiment [2], under 0.001 µM; in experiment [3], under 0.01 µM; in experiment [4], under 0.001 µM.

With `c1ccc(Cc2cnc(N3CCN(c4ncnc(Nc5cnn(C[C@@H]6CNCCO6)c5)n4)CC3)nc2)cc1` [Compound 124], the IC50 is 0.01 to 0.1 µM in experiment [1], under 0.001 µM in experiment [2], under 0.01 µM in experiment [3] and under 0.001 µM in experiment [4].

As to `CC(C)N1CCc2ccc(Nc3ncnc(N4CCN(c5ncc(Cc6ccccc6)cn5)CC4)n3)cc2C1` [Compound 148], the IC50 in experiment [1] is 0.01 to 0.1 µM; in experiment [2], under 0.001 µM; in experiment [3] it was under 0.01 µM; in experiment [4], under 0.001 µM.

Consider `CN1CCN(c2cccc(Nc3ncnc(N4CCN(c5ncc(Cc6ccccc6)cn5)CC4)n3)c2)CC1` [Compound 157], for which the IC50 is 0.1 to 1 µM in experiment [1], under 0.001 µM in experiment [2], under 0.01 µM in experiment [3] and 0.00101 to 0.01 µM in experiment [4].

As to `c1ccc(Cc2cnc(N3CCN(c4ncnc(Nc5ccc(O[C@@H]6CCCNC6)cc5)n4)CC3)nc2)cc1` [Compound 161], the IC50 is under 0.01 µM in experiment [1], under 0.001 µM in experiment [2], under 0.01 µM in experiment [3] and 0.00101 to 0.01 µM in experiment [4].

In the case of `O[C@H]1CCCN(c2ccc(Nc3ncnc(N4CCN(c5ncc(Cc6ccccc6)cn5)CC4)n3)cc2)C1` [Compound 166], the IC50 in experiment [1] is under 0.01 µM; in experiment [2], under 0.001 µM; in experiment [3] it was 0.011 to 0.1 µM; in experiment [4], 0.00101 to 0.01 µM.

For the molecule `CN1CCC(Cn2cc(Nc3ncnc(N4CCN(c5ncc(Cc6ccccc6)cn5)CC4)n3)cn2)CC1` [Compound 174], the IC50 is under 0.01 µM in experiment [1], under 0.001 µM in experiment [2], under 0.01 µM in experiment [3] and under 0.001 µM in experiment [4].

With `Oc1nc(N2CCN(c3ncnc(Nc4cnn(CC5CCNCC5)c4)n3)CC2)ncc1Cc1ccccc1` [Compound 179], the IC50 in experiment [1] was 1 to 10 µM; in experiment [2], under 0.001 µM; in experiment [3], under 0.01 µM; in experiment [4], under 0.001 µM.

For the molecule `OC1CCC(NCc2cccc(Nc3ncnc(N4CCN(c5ncc(Cc6ccccc6)cn5)CC4)n3)c2)C1` (stereo not drawn) [Compound 214], the IC50 in experiment [1] was 0.01 to 0.1 µM; in experiment [2], under 0.001 µM; in experiment [3], 0.011 to 0.1 µM; in experiment [4], under 0.001 µM.

`CN(C)C1CCN(Cc2cccc(Nc3ncnc(N4CCN(c5ncc(Cc6ccccc6)cn5)CC4)n3)c2)C1` (stereo not drawn) [Compound 259]: the IC50 in experiment [1] was 0.01 to 0.1 µM; in experiment [2] it was under 0.001 µM; in experiment [3], under 0.01 µM; in experiment [4], under 0.001 µM.

Consider `CN(C)[C@@H]1CCN(Cc2cccc(Nc3ncnc(N4CCN(c5ncc(Cc6ccccc6)cn5)CC4)n3)c2)C1` [Compound 261], for which the IC50 in experiment [1] was 0.01 to 0.1 µM; in experiment [2], under 0.001 µM; in experiment [3], under 0.01 µM; in experiment [4] it was under 0.001 µM.
